Results taken from patent EP4678638A1, “NEW E3 UBIQUITIN LIGASE LIGAND, PROTEIN DEGRADATION AGENT AND USE THEREOF” (priority 2023, dated 2024).

Key:
RSK1 = target: T1, RSK1 (Homo sapiens, UniProt Q15418); assay: Western blot degradation of RSK1 (hPBMC); type: cell-based; conditions: Table D8
T1 construct: evaluate the effects of the compounds of the present disclosure on the expression of target proteins in cells; endogenous in cells; host or cells: hPBMC
Experimental: (§1) Conventional Western blot assay was performed to evaluate the effects of the compounds of the present disclosure on the expression of target proteins in cells.
(§2) (1) Cell Seeding and Protein Harvesting: The selected cells were processed according to the cell seeding procedure and protein harvesting procedure in Table III-2. Table III-2 Cell Seeding and Protein Harvesting Procedures
(§3) (2) To the collected supernatant, 5X SDS sample loading buffer was added, followed by denaturation at 95°C for 5 minutes. The denatured samples were then separated by SDS-PAGE electrophoresis on a polyacrylamide gel. Proteins were transferred to a nitrocellulose membrane (0.45 µm NC membrane), blocked with blocking buffer at room temperature for 1 hour, and subjected to antibody incubation and development procedures according to the antibody manufacturer's instructions (Cell Signaling Technology).
(§4) Half-Maximal Degradation Concentration value (the drug concentration required for degrading proteins by 50%, abbreviated as DC50) reads method: comparing the grayscale values of Western blot bands from drug-treated samples with those from blank DMSO-treated controls, and identifying the drug concentration range at which the grayscale value is half that of the DMSO-treated control bands.
(§5) DC50 values can be calculated using ImageJ software to measure grayscale values of Western blot bands from drug-treated samples. The concentration-response curve is fitted to estimate the drug concentration corresponding to half the grayscale value.
(§6) Target protein remaining (%) refers to the percentage of target protein remaining in hPBMC cells after treatment with protein degrader compounds.
(§7) Calculation method for target protein remaining (%): Use ImageJ software to measure grayscale values of Western blot bands from drug (protein degrader)-treated samples. The grayscale value of drug-treated bands is divided by that of internal control protein bands, and the resulting quotient is normalized to obtain the relative percentage of remaining target protein after protein degrader treatment.
(§8) Target protein degradation rate (%) = 100% - target protein remaining (%).

RSK2 = target: T2, RSK2 (Homo sapiens, UniProt P51812); assay: Western blot degradation of RSK2 (hPBMC); type: cell-based; conditions: Table D8
T2 construct: evaluate the effects of the compounds of the present disclosure on the expression of target proteins in cells; endogenous in cells; host or cells: hPBMC
Experimental: as §1, §2, §3, §4, §5, §6, §7, §8

T1 sequence (Q15418 whole entry): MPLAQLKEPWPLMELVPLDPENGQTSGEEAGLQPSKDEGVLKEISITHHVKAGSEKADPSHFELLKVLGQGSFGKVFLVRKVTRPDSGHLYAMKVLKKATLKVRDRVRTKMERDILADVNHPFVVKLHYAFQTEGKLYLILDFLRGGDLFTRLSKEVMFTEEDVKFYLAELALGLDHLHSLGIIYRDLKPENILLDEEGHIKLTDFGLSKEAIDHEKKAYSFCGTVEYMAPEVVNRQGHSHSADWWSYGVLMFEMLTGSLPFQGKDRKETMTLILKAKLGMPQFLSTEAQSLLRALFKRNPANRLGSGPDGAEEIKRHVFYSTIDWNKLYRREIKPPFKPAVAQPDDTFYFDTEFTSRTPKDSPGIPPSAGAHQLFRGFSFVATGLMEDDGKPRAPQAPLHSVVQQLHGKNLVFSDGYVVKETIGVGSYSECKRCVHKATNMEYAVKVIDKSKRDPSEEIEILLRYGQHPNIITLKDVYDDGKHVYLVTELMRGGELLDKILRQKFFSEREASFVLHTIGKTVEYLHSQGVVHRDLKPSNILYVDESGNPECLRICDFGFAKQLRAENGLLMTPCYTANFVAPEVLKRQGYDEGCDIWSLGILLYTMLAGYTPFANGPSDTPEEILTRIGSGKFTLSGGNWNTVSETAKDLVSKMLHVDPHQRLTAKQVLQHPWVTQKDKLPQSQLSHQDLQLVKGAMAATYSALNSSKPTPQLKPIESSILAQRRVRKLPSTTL
T2 sequence (P51812 whole entry): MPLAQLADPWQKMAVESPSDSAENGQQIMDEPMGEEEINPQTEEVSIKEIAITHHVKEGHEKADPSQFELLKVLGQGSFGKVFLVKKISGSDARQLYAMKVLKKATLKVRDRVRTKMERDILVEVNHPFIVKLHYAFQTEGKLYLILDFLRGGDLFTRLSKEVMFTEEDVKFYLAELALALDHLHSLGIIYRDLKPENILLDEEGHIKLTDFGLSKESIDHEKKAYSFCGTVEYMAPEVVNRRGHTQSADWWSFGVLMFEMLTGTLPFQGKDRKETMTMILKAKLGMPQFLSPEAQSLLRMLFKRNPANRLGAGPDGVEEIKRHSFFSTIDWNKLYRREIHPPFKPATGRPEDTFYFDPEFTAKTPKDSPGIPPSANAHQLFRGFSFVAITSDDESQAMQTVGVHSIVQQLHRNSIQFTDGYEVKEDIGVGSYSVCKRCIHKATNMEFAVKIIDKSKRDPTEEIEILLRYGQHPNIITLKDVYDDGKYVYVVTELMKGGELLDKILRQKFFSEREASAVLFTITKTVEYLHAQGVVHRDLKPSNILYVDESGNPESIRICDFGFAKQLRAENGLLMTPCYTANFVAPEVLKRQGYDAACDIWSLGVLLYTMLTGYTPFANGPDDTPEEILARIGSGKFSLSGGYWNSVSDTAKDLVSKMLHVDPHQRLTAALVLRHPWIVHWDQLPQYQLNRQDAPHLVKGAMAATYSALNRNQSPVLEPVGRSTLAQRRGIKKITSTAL

## C[C@@H]1CNC(=O)c2cc3ccc(C(=O)Nc4cnn(Cc5ccc(N6CCN(Cc7cnc(N8CCC(=O)NC8=O)cn7)CC6)cc5)c4)nc3n21 [GT-07936, (R)-N-(1-(4-(4-((5-(2,4-dioxotetrahydropyrimidin-1(2H)-yl)pyrazin-2-yl)methyl)piperazin-1-yl)benzyl)-1H-pyrazol-4-yl)-9-methyl-6-oxo-6,7,8,9-tetrahydropyrido[3',2':4,5]py rrolo[1,2-a]pyrazine-2-carboxamide]
RSK1
  Degradation of substrate protein RSK1 (substrate protein remaining %): A (A is defined as 0% ≤ substrate protein remaining % ≤ 80%)
RSK2
  Degradation of substrate protein RSK2 (substrate protein remaining %): B (B is defined as substrate protein remaining % > 80%)

## C[C@@H]1CNC(=O)c2cc3ccc(C(=O)Nc4cnn(Cc5ccc(N6CCC(N7CCN(Cc8ccc(N9CCC(=O)NC9=O)cc8)CC7)CC6)cc5)c4)nc3n21 [GT-07952, (R)-N-(1-(4-(4-(4-(4-(2,4-dioxotetrahydropyrimidin-1(2H)-yl)benzyl)piperazin-1-yl)piperidin-1-yl)benzyl)-1H-pyrazol-4-yl)-9-methyl-6-oxo-6,7,8,9-tetrahydropyrido[3',2':4,5]pyrrolo[1,2-a]pyrazine-2-carboxamide]
RSK1
  Degradation of substrate protein RSK1 (substrate protein remaining %): A (A is defined as 0% ≤ substrate protein remaining % ≤ 80%)
RSK2
  Degradation of substrate protein RSK2 (substrate protein remaining %): A (A is defined as 0% ≤ substrate protein remaining % ≤ 80%)

## C[C@@H]1CNC(=O)c2cc3ccc(C(=O)Nc4cnn(Cc5ccc(N6CCN(Cc7ccnc(N8CCC(=O)NC8=O)c7)CC6)cc5)c4)nc3n21 [GT-07798, (R)-N-(1-(4-(4-((2-(2,4-dioxotetrahydropyrimidin-1(2H)-yl)pyridin-4-yl)methyl)piperazin-1-yl)benzyl)-1H-pyrazol-4-yl)-9-methyl-6-oxo-6,7,8,9-tetrahydropyrido[3',2':4,5]py rrolo[1,2-a]pyrazine-2-carboxamide]
RSK1
  Degradation of substrate protein RSK1 (substrate protein remaining %): A (A is defined as 0% ≤ substrate protein remaining % ≤ 80%)
RSK2
  Degradation of substrate protein RSK2 (substrate protein remaining %): A (A is defined as 0% ≤ substrate protein remaining % ≤ 80%)

## C[C@@H]1CNC(=O)c2cc3ccc(C(=O)Nc4cnn(Cc5ccc(N6CCC(N(C)Cc7ccc(C8CCC(=O)NC8=O)cc7)CC6)cc5)c4)nc3n21 (stereo partly drawn) [GT-07937, (9R)-N-(1-(4-(4-((4-(2,6-dioxopiperidin-3-yl)benzyl)(methyl)amino)piperidin-1-yl)benzyl)-1H-pyrazol-4-yl)-9-methyl-6-oxo-6,7,8,9-tetrahydropyrido[3',2':4,5]py rrolo[1,2-a]pyrazine-2-carboxamide]
RSK1
  Degradation of substrate protein RSK1 (substrate protein remaining %): A (A is defined as 0% ≤ substrate protein remaining % ≤ 80%)
RSK2
  Degradation of substrate protein RSK2 (substrate protein remaining %): B (B is defined as substrate protein remaining % > 80%)

## C[C@@H]1CNC(=O)c2cc3ccc(C(=O)Nc4cnn(Cc5ccc(N6CCN(Cc7cccc(NC8CCC(=O)NC8=O)c7)CC6)cc5)c4)nc3n21 (stereo partly drawn) [GT-07931, (9R)-N-(1-(4-(4-(3-((2,6-dioxopiperidin-3-yl)amino)benzyl)piperazin-1-yl)benzyl)-1H-pyrazol-4-yl)-9-methyl-6-oxo-6,7,8,9-tetrahydropyrido[3',2':4,5]py rrolo[1,2-a]pyrazine-2-carboxamide]
RSK1
  Degradation of substrate protein RSK1 (substrate protein remaining %): A (A is defined as 0% ≤ substrate protein remaining % ≤ 80%)
RSK2
  Degradation of substrate protein RSK2 (substrate protein remaining %): A (A is defined as 0% ≤ substrate protein remaining % ≤ 80%)

## C[C@@H]1CNC(=O)c2cc3ccc(C(=O)Nc4cnn(Cc5ccc(N6CCC(N7CCN(Cc8ccc(N9CCC(=O)NC9=O)nc8)CC7)CC6)cc5)c4)nc3n21 [GT-07955, (R)-N-(1-(4-(4-(4-((6-(2,4-dioxotetrahydropyrimidin-1(2H)-yl)pyridin-3-yl)methyl)piperazin-1-yl)piperidin-1-yl)benzyl)-1H-pyrazol-4-yl)-9-methyl-6-oxo-6,7,8,9-tetrahydropyrido[3',2':4,5]pyrrolo[1,2-a]pyrazine-2-carboxamide]
RSK1
  Degradation of substrate protein RSK1 (substrate protein remaining %): A (A is defined as 0% ≤ substrate protein remaining % ≤ 80%)
RSK2
  Degradation of substrate protein RSK2 (substrate protein remaining %): A (A is defined as 0% ≤ substrate protein remaining % ≤ 80%)

## C[C@@H]1CNC(=O)c2cc3ccc(C(=O)Nc4cnn(Cc5ccc(N6CCN(Cc7cc(N8CCC(=O)NC8=O)ncc7F)CC6)cc5)c4)nc3n21 [GT-07797, (R)-N-(1-(4-(4-((2-(2,4-dioxotetrahydropyrimidin-1(2H)-yl)-5-fluoropyridin-4-yl)methyl)piperazin-1-yl)benzyl)-1H-pyrazol-4-yl)-9-methyl-6-oxo-6,7,8,9-tetrahydropyrido[3',2':4,5]py rrolo[1,2-a]pyrazine-2-carboxamide]
RSK1
  Degradation of substrate protein RSK1 (substrate protein remaining %): A (A is defined as 0% ≤ substrate protein remaining % ≤ 80%)
RSK2
  Degradation of substrate protein RSK2 (substrate protein remaining %): A (A is defined as 0% ≤ substrate protein remaining % ≤ 80%)

## C[C@@H]1CNC(=O)c2cc3ccc(C(=O)Nc4cnn(Cc5ccc(N6CCN(Cc7ccc(N8CCC(=O)NC8=O)nc7)CC6)cc5)c4)nc3n21 [GT-07930, (R)-N-(1-(4-(4-((6-(2,4-dioxotetrahydropyrimidin-1(2H)-yl)pyridin-3-yl)methyl)piperazin-1-yl)benzyl)-1H-pyrazol-4-yl)-9-methyl-6-oxo-6,7,8,9-tetrahydropyrido[3',2':4,5]py rrolo[1,2-a]pyrazine-2-carboxamide]
RSK1
  Degradation of substrate protein RSK1 (substrate protein remaining %): A (A is defined as 0% ≤ substrate protein remaining % ≤ 80%)
RSK2
  Degradation of substrate protein RSK2 (substrate protein remaining %): B (B is defined as substrate protein remaining % > 80%)

## C[C@@H]1CNC(=O)c2cc3ccc(C(=O)Nc4cnn(Cc5ccc(N6CCC(N(C)Cc7ccnc(C8CCC(=O)NC8=O)c7)CC6)cc5)c4)nc3n21 (stereo partly drawn) [GT-07947, (9R)-N-(1-(4-(4-(((2-(2,6-dioxopiperidin-3-yl)pyridin-4-yl)methyl)(methyl)amino)piperidin-1-yl)benzyl)-1H-pyrazol-4-yl)-9-methyl-6-oxo-6,7,8,9-tetrahydropyrido[3',2':4,5]py rrolo[1,2-a]pyrazine-2-carboxamide]
RSK1
  Degradation of substrate protein RSK1 (substrate protein remaining %): A (A is defined as 0% ≤ substrate protein remaining % ≤ 80%)
RSK2
  Degradation of substrate protein RSK2 (substrate protein remaining %): A (A is defined as 0% ≤ substrate protein remaining % ≤ 80%)

## C[C@@H]1CNC(=O)c2cc3ccc(C(=O)Nc4cnn(Cc5ccc(N6CCN(Cc7cncc(N8CCC(=O)NC8=O)c7)CC6)cc5)c4)nc3n21 [GT-07925, (R)-N-(1-(4-(4-((5-(2,4-dioxotetrahydropyrimidin-1(2H)-yl)pyridin-3-yl)methyl)piperazin-1-yl)benzyl)-1H-pyrazol-4-yl)-9-methyl-6-oxo-6,7,8,9-tetrahydropyrido[3',2':4,5]py rrolo[1,2-a]pyrazine-2-carboxamide]
RSK1
  Degradation of substrate protein RSK1 (substrate protein remaining %): A (A is defined as 0% ≤ substrate protein remaining % ≤ 80%)
RSK2
  Degradation of substrate protein RSK2 (substrate protein remaining %): B (B is defined as substrate protein remaining % > 80%)

## C[C@@H]1CNC(=O)c2cc3ccc(C(=O)Nc4cnn(Cc5ccc(N6CCC(N(C)Cc7cnc(N8CCC(=O)NC8=O)cn7)CC6)cc5)c4)nc3n21 [GT-07950, (R)-N-(1-(4-(4-(((5-(2,4-dioxotetrahydropyrimidin-1(2H)-yl)pyrazin-2-yl)methyl)(methyl)amino)piperidin-1-yl)benzyl)-1H-pyrazol-4-yl)-9-methyl-6-oxo-6,7,8,9-tetrahydropyrido[3',2':4,5]py rrolo[1,2-a]pyrazine-2-carboxamide]
RSK1
  Degradation of substrate protein RSK1 (substrate protein remaining %): A (A is defined as 0% ≤ substrate protein remaining % ≤ 80%)
RSK2
  Degradation of substrate protein RSK2 (substrate protein remaining %): A (A is defined as 0% ≤ substrate protein remaining % ≤ 80%)

## C[C@@H]1CNCc2cc3ccc(C(=O)Nc4cnn(Cc5ccc(N6CCC(N(C)Cc7ccc(N8CCC(=O)NC8=O)nc7)CC6)cc5)c4)nc3n21 [GT-07941, (R)-N-(1-(4-(4-(((6-(2,4-dioxotetrahydropyrimidin-1(2H)-yl)pyridin-3-yl)methyl)(methyl)amino)piperidin-1-yl)benzyl)-1H-pyrazol-4-yl)-9-methyl-6,7,8,9-tetrahydropyrido[3',2':4,5]py rrolo[1,2-a]pyrazine-2-carboxamide]
RSK1
  Degradation of substrate protein RSK1 (substrate protein remaining %): A (A is defined as 0% ≤ substrate protein remaining % ≤ 80%)
RSK2
  Degradation of substrate protein RSK2 (substrate protein remaining %): A (A is defined as 0% ≤ substrate protein remaining % ≤ 80%)

## C[C@@H]1CNC(=O)c2cc3ccc(C(=O)Nc4cnn(Cc5ccc(NCc6cc(N7CCC(=O)NC7=O)ncc6F)cc5)c4)nc3n21 [GT-07794, (R)-N-(1-(4-(((2-(2,4-dioxotetrahydropyrimidin-1(2H)-yl)-5-fluoropyridin-4-yl)methyl)amino)benzyl)-1H-pyrazol-4-yl)-9-methyl-6-oxo-6,7,8,9-tetrahydropyrido[3',2':4,5]pyrrolo[1,2-a]pyrazine-2-carboxamide]
RSK1
  Degradation of substrate protein RSK1 (substrate protein remaining %): A (A is defined as 0% ≤ substrate protein remaining % ≤ 80%)
RSK2
  Degradation of substrate protein RSK2 (substrate protein remaining %): B (B is defined as substrate protein remaining % > 80%)
